Measurements reported in PubChem BioAssay AID720726 (Broad Institute, 2013).
Calls of active or inactive are those of the source.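 The calls were made as follows: active = fitted dose curve rising to 40 percent activity within the top usable dose; inconclusive = flat curve between 30 and 70 percent, or poor fit; inactive = the rest, including signal moving the wrong way.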

How the values were obtained:
[1] = miR-122 upregulation in Huh7 hepatoma cells – cell-based, qRT-PCR, dry powder, orthogonal assay, dose response (AID 720726); details: Huh7 miR-122 levels, qRT-PCR, 48 h
[2] = test system: Huh7 miR-122 levels, qRT-PCR, 48 h; test: as above

Row | SMILES | miR-122 fold change ([1]; at 35 µM (top of the series)) | further results
1 | CO[C@@H]1CN(C)C(=O)c2cc(NC(=O)c3cccc(Oc4ccccc4)c3)ccc2OC[C@H](C)NC[C@@H]1C | 0.113 fold change (inactive) | 
2 | C[C@H]1CN([C@@H](C)CO)S(=O)(=O)c2ccc(C#Cc3ccncc3)cc2O[C@@H]1CN(C)C(=O)C1CCOCC1 | 0.399 fold change (inactive) | 
3 | Nc1ccc(Oc2ccc(Br)cc2)cc1 | 0.505 fold change (inactive) | 
4 | CN1C(=O)c2cc(NC(=O)c3cccc(F)c3)ccc2OC[C@@H]2O[C@@H](CC(=O)O)CC[C@@H]21 | 0.94 fold change (inactive) | 
5 | CCOC(=O)N1CCC(NC(=O)c2ccc3c(c2)sc2nc(-c4ccccc4)cn23)CC1 | 0.356 fold change (inactive) | 
6 | Cc1cc(C(C)(C)C)cc(S(=O)(=O)N2CCOCC2)c1C | 0.977 fold change (inactive) | 
7 | O=C(c1ccc(CNc2c(NC3CCCCC3)c(=O)c2=O)cc1)N1CCc2ccccc21 | 0.521 fold change (inactive) | 
8 | COCC(=O)N(C)C[C@H]1Oc2cc(-c3ccccc3F)ccc2S(=O)(=O)N([C@H](C)CO)C[C@H]1C |  | AC40 [2]: 18.9 µM
9 | CN1C(=O)c2cc(NC(=O)c3cccc(F)c3)ccc2OC[C@@H]2O[C@@H](CC(=O)O)CC[C@H]21 |  | miR-122 fold change ([1]; at 30 µM (top of the series)): 0.927 fold change (inactive)
10 | CN(CC(=O)Nc1cccc(Cl)c1)S(=O)(=O)c1ccc2c(c1)n(C)c(=O)c(=O)n2C | 1.27 fold change (inactive) | 
11 | CN1C(=O)c2cc(NC(=O)c3cccc(F)c3)ccc2OC[C@@H]2O[C@H](CC(=O)O)CC[C@H]21 | 0.958 fold change (inactive) | 
12 | C[C@@H]1CN([C@@H](C)CO)S(=O)(=O)c2ccc(C#Cc3ccncc3)cc2O[C@H]1CN(C)C(=O)C1CCOCC1 | 0.639 fold change (inactive) | 
13 | CCCC#Cc1ccc2c(c1)O[C@H](CN(C)C(=O)COC)[C@H](C)CN([C@@H](C)CO)S2(=O)=O |  | AC40 [2]: 23.9 µM
14 | Cc1cccc(NC(=O)Nc2ccc3c(c2)C(=O)N(C)[C@@H]2CC[C@@H](CC(=O)NCc4ccccc4Cl)O[C@H]2CO3)c1 | 1.25 fold change (inactive) | 
15 | CO[C@@H]1CN(C)C(=O)c2cc(NC(=O)c3ccc4c(c3)OCO4)ccc2OC[C@H](C)NC[C@@H]1C | 1.02 fold change (inactive) | 
16 | CCn1cc(C(=O)O)c(=O)c2cc(F)c(N3CCNCC3)nc21 | 0.972 fold change (inactive) | 
17 | CCN(CC)C(=O)c1cccc(NC(=O)c2ccc(Cl)cc2Cl)c1 | 0.931 fold change (inactive) | 
18 | CN1C(=O)c2cc(NC(=O)c3cccc(F)c3)ccc2OC[C@H]2O[C@@H](CC(=O)O)CC[C@H]21 | 1.38 fold change (inactive) | 
19 | C/C=C/c1cnc2c(c1)C(=O)N([C@@H](C)CO)C[C@H](C)[C@H](CN(C)S(=O)(=O)c1ccc(OC)cc1)O2 | 1.05 fold change (inactive) | 
20 | C[C@H](CO)N1C[C@H](C)[C@@H](CN(C)C(=O)C2CCOCC2)Oc2cc(C#Cc3ccncc3)ccc2S1(=O)=O | 0.407 fold change (inactive) | 
21 | CN1C(=O)c2cc(NC(=O)c3cccc(F)c3)ccc2OC[C@H]2O[C@H](CC(=O)O)CC[C@H]21 | 0.909 fold change (inactive) | 
22 | C[C@H]1CN([C@@H](C)CO)C(=O)c2cc(-c3ccc(C#N)cc3)cnc2O[C@H]1CN(C)C(=O)c1ccccc1 | 1.14 fold change (inactive) | 

Row | SMILES | miR-122 fold change ([1]; at 35 µM (top of the series)) | further results
23 | C[C@H]1CN([C@@H](C)CO)C(=O)c2cc(-c3ccc(C#N)cc3)cnc2O[C@H]1CN(C)C(=O)Nc1ccc(C(F)(F)F)cc1 | 0.749 fold change (inactive) | 
24 | O=C(CN=C1NS(=O)(=O)c2ccccc21)Nc1ccccc1N1CCCCCC1 | 1.09 fold change (inactive) | 
25 | C[C@H]1CN([C@@H](C)CO)C(=O)c2cc(C#Cc3ccccc3F)cnc2O[C@H]1CN(C)C(=O)C1CCCCC1 | 0.569 fold change (inactive) | 
26 | COc1cccc(C(=O)Nc2ccc3c(c2)C(=O)N(C)C[C@@H](OC)[C@@H](C)CN[C@@H](C)CO3)c1 | 1.15 fold change (inactive) | 
27 | Cn1c(=O)c(=O)n(C)c2cc(S(=O)(=O)N3CCOCC3)ccc21 | 1.28 fold change (inactive) | 
28 | O=C(NCCC1=CCCCC1)c1ccc2c(c1)sc1nc(-c3ccccc3)cn12 | 0.828 fold change (inactive) | 
29 | COc1ccc(S(=O)(=O)N(C)C[C@@H]2Oc3ncc(/C=C/c4ccccc4)cc3C(=O)N([C@@H](C)CO)C[C@@H]2C)cc1 | 0.9 fold change (inactive) | 
30 | C[C@H]1CN([C@@H](C)CO)S(=O)(=O)c2ccc(C#Cc3ccncc3)cc2O[C@H]1CN(C)C(=O)C1CCOCC1 | 0.373 fold change (inactive) | 
31 | CN(C)CCN1C(=O)c2cccc3cc(N)cc(c23)C1=O | 0.364 fold change (inactive) | 
32 | C[C@H]1CN([C@@H](C)CO)C(=O)c2cc(-c3ccc(C#N)cc3)cnc2O[C@H]1CN(C)Cc1cncnc1 | 0.987 fold change (inactive) | 
33 | COCC(=O)N(C)C[C@H]1Oc2cc(-c3ccccc3F)ccc2S(=O)(=O)N([C@@H](C)CO)C[C@H]1C | 0.823 fold change (inactive) | 
34 | CN1C(=O)c2cc(NC(=O)c3cccc(F)c3)ccc2OC[C@@H]2O[C@H](CC(=O)O)CC[C@@H]21 | 0.92 fold change (inactive) | 
35 | O=C(CNCCC1=CCCCC1)Nc1ccccc1N1CCCCCC1 | 0.489 fold change (inactive) | 
36 | Cc1cc(C(C)(C)C)cc(S(=O)(=O)NCCc2ccncc2)c1C | 1.04 fold change (inactive) | 
37 | Cc1cccc(NC(=O)Nc2ccc3c(c2)C(=O)N(C)[C@@H]2CC[C@H](CC(=O)NCc4ccccc4Cl)O[C@H]2CO3)c1 |  | AC40 [2]: 8.38 µM
38 | COCC(=O)N(C)C[C@H]1Oc2cc(-c3ccc(C#N)cc3)ccc2S(=O)(=O)N([C@H](C)CO)C[C@H]1C | 0.895 fold change (inactive) | 
39 | COCC(=O)N(C)C[C@H]1Oc2cc(-c3ccc(C#N)cc3)ccc2S(=O)(=O)N([C@@H](C)CO)C[C@H]1C | 1.17 fold change (inactive) | 
40 | CN1C(=O)c2cc(NC(=O)c3cccc(F)c3)ccc2OC[C@H]2O[C@@H](CC(=O)O)CC[C@@H]21 | 1.24 fold change (inactive) | 
41 | COc1cccc(-c2ccc3c(c2)O[C@H](CN(C)C(=O)C2CCOCC2)[C@H](C)CN([C@@H](C)CO)S3(=O)=O)c1 | 0.896 fold change (inactive) | 
42 | C[C@@H]1CN([C@H](C)CO)S(=O)(=O)c2ccc(C#Cc3ccncc3)cc2O[C@@H]1CN(C)C(=O)C1CCOCC1 | 0.732 fold change (inactive) | 
43 | COCC(=O)N(C)C[C@H]1Oc2cc(C#Cc3cccnc3)ccc2S(=O)(=O)N([C@H](C)CO)C[C@H]1C |  | AC40 [2]: 16.9 µM
44 | CN(C)CCCOc1nn(Cc2ccccc2)c2ccccc12 | 1.5 fold change (inactive) | 

Row | SMILES | miR-122 fold change ([1]; at 35 µM (top of the series)) | further results
45 | C[C@H](CO)N1C[C@H](C)[C@H](CN(C)C(=O)C2CCOCC2)Oc2cc(C#Cc3ccncc3)ccc2S1(=O)=O | 0.417 fold change (inactive) | 
46 | COCC(=O)N(C)C[C@H]1Oc2cc(C#Cc3cccnc3)ccc2S(=O)(=O)N([C@@H](C)CO)C[C@H]1C | 0.983 fold change (inactive) | 
47 | Nc1ccc(Oc2ccc(Cl)cc2)cc1 | 0.496 fold change (inactive) | 
48 | CO[C@@H]1CN(C)C(=O)c2cc(NS(=O)(=O)c3ccc(Oc4ccccc4)cc3)ccc2OC[C@H](C)NC[C@@H]1C | 0.882 fold change (inactive) | 
49 | COc1ccc(-c2cnc3c(c2)C(=O)N([C@@H](C)CO)C[C@H](C)[C@H](CN(C)S(=O)(=O)c2ccc(OC)cc2)O3)cc1 | 1.26 fold change (inactive) | 
50 | C[C@@H]1CN([C@H](C)CO)S(=O)(=O)c2ccc(C#Cc3ccncc3)cc2O[C@H]1CN(C)C(=O)C1CCOCC1 | 0.486 fold change (inactive) | 
51 | O=S(=O)(NCCc1ccncc1)c1ccccc1 | 1.01 fold change (inactive) | 
52 | C[C@H]1CN([C@@H](C)CO)C(=O)c2cc(C#Cc3ccccc3F)cnc2O[C@@H]1CN(C)C(=O)C1CCCCC1 | 0.164 fold change (inactive) | 
53 | COCC(=O)N(C)C[C@@H]1Oc2ncc(-c3ccc(C#N)cc3)cc2C(=O)N([C@@H](C)CO)C[C@@H]1C | 1.01 fold change (inactive) | 
54 | C[C@@H]1CN([C@@H](C)CO)S(=O)(=O)c2ccc(C#Cc3ccncc3)cc2O[C@@H]1CN(C)C(=O)C1CCOCC1 | 0.563 fold change (inactive) | 
55 | C[C@@H]1CN([C@H](C)CO)S(=O)(=O)c2ccc(/C=C/c3ccccc3)cc2O[C@@H]1CN(C)C(=O)c1cccnc1 | 1.11 fold change (inactive) | 
56 | O=C(Nc1ccc(-c2nc3ccccc3o2)cc1)c1cc(-n2cnnc2)ccc1Cl | 0.17 fold change (inactive) | 
57 | CN1C(=O)c2cc(NC(=O)c3cccc(F)c3)ccc2OC[C@H]2O[C@H](CC(=O)O)CC[C@@H]21 | 0.869 fold change (inactive) | 
58 | OCc1ccc(-c2nn(Cc3ccccc3)c3ccccc23)o1 | 0.428 fold change (inactive) | 
59 | O=C(NCc1ccccc1Cl)c1ccc(CNc2c(NC3CCCCC3)c(=O)c2=O)cc1 | 0.171 fold change (inactive) | 
60 | O=C(c1ccc(CN2CCOCC2)cc1)N1CCc2ccccc21 | 1 fold change (inactive) | 
61 | CCCC#Cc1ccc2c(c1)O[C@H](CN(C)C(=O)c1ccncc1)[C@H](C)CN([C@@H](C)CO)S2(=O)=O |  | AC40 [2]: 3.54 µM
62 | CNC[C@@H]1Oc2cc(C#CC3CCCCC3)ccc2S(=O)(=O)N([C@@H](C)CO)C[C@@H]1C | 1.07 fold change (inactive) | 
63 | CCCCN(CCCC)C(=O)CN(C)S(=O)(=O)c1ccc2c(c1)n(C)c(=O)c(=O)n2C | 0.906 fold change (inactive) | 
64 | CCOC(=O)N1CCC(NC(=O)c2ccc3nc(N4CCC(C)CC4)sc3c2)CC1 | 1 fold change (inactive) | 
